Experimental data published in US20110015153A1, “FLY CONTROL METHOD” (E.I. DU PONT DE NEMOURS AND COMPANY, priority 2007, published 2011).

Test system: Adult L. serricata (blowflies)
Experiment: Test A: adult blowflies on blood agar containing test compound, number of dead flies scored
Type: in vivo
Conditions: 4 flies in test
Procedure: Adult L. serricata (blowflies): Adult flies are placed on beds of blood agar (in individual test wells; 4 flies per well) in which test compound (3-bromo-1-(3-chloro-2-pyridinyl)-N-[4-cyano-2-methyl-6-[(methylamino)carbonyl]phenyl]-1H-pyrazole-5-carboxamide) was dissolved/suspended prior to hardening of agar. Flies can take up test compound by both ingestion and contact. Assays are scored by number of dead flies at 2 hours, 4 hours, and 24 hours.

Compound | Number dead flies at 2 hours (Rate 1 ppm in blood agar) | Number dead flies at 4 hours (Rate 1 ppm in blood agar) | Number dead flies at 24 hours (Rate 1 ppm in blood agar) | Number dead flies at 2 hours (Rate 10 ppm in blood agar) | Number dead flies at 4 hours (Rate 10 ppm in blood agar) | Number dead flies at 24 hours (Rate 10 ppm in blood agar) | Number dead flies at 2 hours (Rate 25 ppm in blood agar) | Number dead flies at 4 hours (Rate 25 ppm in blood agar) | Number dead flies at 24 hours (Rate 25 ppm in blood agar) | Number dead flies at 2 hours (Rate 50 ppm in blood agar) | Number dead flies at 4 hours (Rate 50 ppm in blood agar) | Number dead flies at 24 hours (Rate 50 ppm in blood agar) | Number dead flies at 2 hours (Rate 100 ppm in blood agar) | Number dead flies at 4 hours (Rate 100 ppm in blood agar) | Number dead flies at 24 hours (Rate 100 ppm in blood agar)
CNC(=O)c1cc(C#N)cc(C)c1NC(=O)c1cc(Br)nn1-c1ncccc1Cl [Test compound, 3-bromo-1-(3-chloro-2-pyridinyl)-N-[4-cyano-2-methyl-6-[(methylamino)-carbonyl]phenyl]-1H-pyrazole-5-carboxamide] | 0 | 0 | 0 | 0 | 0 | 1 | 0 | 0 | 2 | 0 | 0 | 3 | 0 | 0 | 3
CCOP(=S)(OCC)Oc1nc(Cl)c(Cl)cc1Cl [Chloropyriphos] | 0 | 1 | 4 | 1 | 4 | 4 | 3 | 4 | 4 | 4 | 4 | 4 | 4 | 4 | 4
